From article PMC6199744, “Development of Chemical Proteomics for the Folateome and Analysis of the Kinetoplastid Folateome” (ACS Infectious Diseases, 2018)
Like-named read-outs stand apart in the source and are kept apart here.

Experiments:
Format in all cases: binding
[1] = molecular target: T1, HeLa cell extract proteins (Homo sapiens, UniProt P60709)
T1 construct: endogenous in cells; host or cells: HeLa cell extract

[2] = molecular target: T2, HeLa cell extract proteins (Homo sapiens, UniProt Q8NBE8)
T2 construct: endogenous in cells; host or cells: HeLa cell extract
T2 sequence (Q8NBE8 1-558): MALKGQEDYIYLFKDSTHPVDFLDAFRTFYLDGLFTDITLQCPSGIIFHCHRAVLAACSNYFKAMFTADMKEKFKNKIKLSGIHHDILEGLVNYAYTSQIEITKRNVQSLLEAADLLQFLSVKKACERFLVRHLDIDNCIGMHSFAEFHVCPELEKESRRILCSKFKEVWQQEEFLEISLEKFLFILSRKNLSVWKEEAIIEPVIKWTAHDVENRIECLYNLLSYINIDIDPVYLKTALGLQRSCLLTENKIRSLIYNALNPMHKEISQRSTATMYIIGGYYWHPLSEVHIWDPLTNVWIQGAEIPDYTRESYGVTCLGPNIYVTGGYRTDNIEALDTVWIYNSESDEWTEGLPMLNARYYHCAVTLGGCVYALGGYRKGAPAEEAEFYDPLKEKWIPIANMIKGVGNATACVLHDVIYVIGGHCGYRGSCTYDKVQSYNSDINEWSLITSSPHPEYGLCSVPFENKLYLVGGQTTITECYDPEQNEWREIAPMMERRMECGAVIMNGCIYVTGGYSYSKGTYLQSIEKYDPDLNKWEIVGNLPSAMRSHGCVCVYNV

[3] = molecular target: T3, HeLa cell extract proteins (Homo sapiens, UniProt P30876)
T3 construct: endogenous in cells; host or cells: HeLa cell extract

[4] = molecular target: T4, HeLa cell extract proteins (Homo sapiens, UniProt P36542)
T4 construct: endogenous in cells; host or cells: HeLa cell extract
T4 sequence (P36542 26-298): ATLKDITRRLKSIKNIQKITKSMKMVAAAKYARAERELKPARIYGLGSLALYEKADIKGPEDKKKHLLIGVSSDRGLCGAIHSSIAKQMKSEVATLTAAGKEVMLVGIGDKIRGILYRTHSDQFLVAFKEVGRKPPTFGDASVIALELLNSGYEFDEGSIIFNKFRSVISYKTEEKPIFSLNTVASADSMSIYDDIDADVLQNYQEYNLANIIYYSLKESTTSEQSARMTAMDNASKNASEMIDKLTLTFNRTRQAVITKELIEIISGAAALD

[5] = molecular target: T5, HeLa cell extract proteins (Homo sapiens, UniProt Q969U7)
T5 construct: endogenous in cells; host or cells: HeLa cell extract
T5 sequence (Q969U7 1-264): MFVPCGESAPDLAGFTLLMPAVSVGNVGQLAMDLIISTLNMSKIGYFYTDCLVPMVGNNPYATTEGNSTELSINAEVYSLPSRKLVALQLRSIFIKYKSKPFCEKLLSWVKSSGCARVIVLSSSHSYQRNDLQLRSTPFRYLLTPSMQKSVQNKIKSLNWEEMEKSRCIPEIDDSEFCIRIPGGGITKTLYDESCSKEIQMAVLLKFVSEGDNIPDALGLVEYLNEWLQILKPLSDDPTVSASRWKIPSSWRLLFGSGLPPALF

[6] = molecular target: T6, HeLa cell extract proteins (Homo sapiens, UniProt O75521)
T6 construct: endogenous in cells; host or cells: HeLa cell extract
T6 sequence (O75521 39-394): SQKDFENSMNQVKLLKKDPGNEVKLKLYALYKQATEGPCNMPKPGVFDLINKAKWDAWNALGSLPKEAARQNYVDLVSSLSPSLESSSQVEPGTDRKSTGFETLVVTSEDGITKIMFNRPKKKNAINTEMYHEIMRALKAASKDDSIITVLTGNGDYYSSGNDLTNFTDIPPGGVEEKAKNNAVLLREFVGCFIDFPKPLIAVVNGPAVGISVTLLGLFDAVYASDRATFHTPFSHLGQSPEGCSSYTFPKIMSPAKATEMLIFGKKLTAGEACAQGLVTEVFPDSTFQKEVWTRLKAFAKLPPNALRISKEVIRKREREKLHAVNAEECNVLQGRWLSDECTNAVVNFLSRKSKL

[7] = molecular target: T7, HeLa cell extract proteins (Homo sapiens, UniProt Q7Z4G4)
T7 construct: endogenous in cells; host or cells: HeLa cell extract
T7 sequence (Q7Z4G4 1-463): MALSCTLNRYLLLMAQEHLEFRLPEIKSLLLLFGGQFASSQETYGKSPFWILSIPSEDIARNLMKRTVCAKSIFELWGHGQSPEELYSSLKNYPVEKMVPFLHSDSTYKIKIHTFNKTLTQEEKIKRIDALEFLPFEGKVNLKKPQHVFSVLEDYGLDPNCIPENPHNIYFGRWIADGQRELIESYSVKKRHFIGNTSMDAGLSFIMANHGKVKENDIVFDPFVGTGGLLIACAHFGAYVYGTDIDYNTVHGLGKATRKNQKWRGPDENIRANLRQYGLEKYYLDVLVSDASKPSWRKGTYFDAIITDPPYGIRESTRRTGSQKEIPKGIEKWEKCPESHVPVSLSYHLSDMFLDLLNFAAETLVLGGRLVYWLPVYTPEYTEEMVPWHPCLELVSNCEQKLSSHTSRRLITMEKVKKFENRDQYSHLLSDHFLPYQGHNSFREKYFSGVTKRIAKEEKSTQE

| Compound | fold changes relative to vehicle control ([1]; HeLa, protein ACTB) | fold changes relative to vehicle control ([2]; HeLa, protein KLHL23) | fold changes relative to vehicle control ([3]; protein POLR2B, HeLa) | fold changes relative to vehicle control ([4]; HeLa, captured protein ATP5C1) | fold changes relative to vehicle control ([5]; HeLa, captured protein PSMG2) | fold changes relative to vehicle control ([6]; HeLa, captured protein PECI) | fold changes relative to vehicle control ([7]; HeLa, captured protein TRMT11) | fold changes relative to vehicle control ([1]; protein ACTB, HeLa) | fold changes relative to vehicle control ([2]; protein KLHL23, HeLa) | fold changes relative to vehicle control ([3]; HeLa, protein POLR2B) | fold changes relative to vehicle control ([4]; HeLa, protein ATP5C1) | fold changes relative to vehicle control ([5]; protein PSMG2, HeLa) | fold changes relative to vehicle control ([6]; protein PECI, HeLa) | fold changes relative to vehicle control ([7]; HeLa, protein TRMT11) | also measured |
| --- | --- | --- | --- | --- | --- | --- | --- | --- | --- | --- | --- | --- | --- | --- | --- |
| Nc1nc2c(c(=O)[nH]1)N(C=O)C(CNc1ccc(C(=O)N[C@@H](CCC(=O)O)C(=O)O)cc1)CN2 (stereo partly shown) [LEU, leucovorin] | 1.13 | 0.91 | 0.8 | 0.99 | 1.05 | 1.06 | 1.15 | – | – | – | – | – | – | – | – |
| Nc1nc2[nH]cc(CCc3ccc(C(=O)N[C@@H](CCC(=O)O)C(=O)O)cc3)c2c(=O)[nH]1 [PTX, pemetrexed] | – | – | – | – | – | – | – | – | – | – | – | – | – | – | fold changes relative to vehicle control [1]: 1.18; fold changes relative to vehicle control [2]: 0.8; fold changes relative to vehicle control [3]: 0.89; fold changes relative to vehicle control [4]: 1.01; fold changes relative to vehicle control [5]: 0.97; fold changes relative to vehicle control [6]: 1.01; fold changes relative to vehicle control [7]: 0.85 |
| CCCCCCOc1ccc(Cc2cnc(N)nc2N)cc1 [compound 1] | – | – | – | – | – | – | – | 1.25 | 0.87 | 0.94 | 1.05 | 1 | 0.99 | 1.13 | – |
| CCCCCCOc1cccc(Cc2cnc(N)nc2N)c1 [compound 2] | – | – | – | – | – | – | – | 1.5 | 0.94 | 1.42 | 0.9 | 1.03 | 0.82 | 1.19 | – |
| Nc1nc2cccc(-c3ccccc3)c2n1Cc1ccc(Cl)c(Cl)c1 [compound 3] | – | – | – | – | – | – | – | 1.07 | 0.92 | 0.98 | 0.89 | 0.87 | 1.05 | 0.96 | – |
| NCCOCCOCC(=O)Nc1nc2ncc(CNc3ccc(C(=O)NC(CCC(=O)O)C(=O)O)cc3)nc2c(=O)[nH]1 (stereo not shown) [compound 6] | 1.39 | 0.8 | 1.07 | 0.97 | 1 | 0.96 | 0.86 | – | – | – | – | – | – | – | – |
| NCCCNc1ccc(C(=O)NC(CCC(=O)O)C(=O)O)cc1 (stereo not shown) [compound 7] | 1.04 | 0.83 | 0.91 | 0.99 | 0.98 | 1.03 | 1.07 | – | – | – | – | – | – | – | – |
